From patent publication US20230142739A1, “PROTEIN-PROTEIN INTERACTION STABILIZERS” (The Regents of the University of California, priority 2020, published 2023)
Marks after values point to notes of the source that are not given here. Values belong to the molecule of their own block, whether it stands above or below them.

What was measured:
[1] = target: ER (Homo sapiens, UniProt P31947); experiment: MS (KD,app), ER; type: binding; conditions: 24 hr incubation
[2] = target: T1, p65_45/14-3-3γ (Homo sapiens, UniProt P61981); experiment: Fluorescence anisotropy protein titration, p65_45 peptide/14-3-3γ in presence of 1 mM fragment; type: binding; set-up: The full length 14-3-3γ was dialysis against 25 mM HEPES pH7.5; made in house; host or cells: E. coli BL21(DE3), pPROEX HTb
T1 sequence (P61981 whole entry, other chains not shown, the tested form may be a part): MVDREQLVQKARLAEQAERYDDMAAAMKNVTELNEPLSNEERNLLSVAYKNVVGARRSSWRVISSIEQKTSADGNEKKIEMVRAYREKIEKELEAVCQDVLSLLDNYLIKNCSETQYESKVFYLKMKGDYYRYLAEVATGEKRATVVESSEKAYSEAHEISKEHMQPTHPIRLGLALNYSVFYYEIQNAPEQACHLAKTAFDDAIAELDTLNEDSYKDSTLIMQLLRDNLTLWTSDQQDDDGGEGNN
Protocol: SF: the fold-change of apparent KD in comparison to a DMSO control.
During compound titrations, the 14-3-3γ concentration was constant 50 μM and the compound was titrated in a 1:1 dilution series. In protein titrations, 14-3-3γ was titrated in a 1:1 dilution series in the presence of 1 mM compound. The plates (Corning 384 well plates, black, round bottom, low binding) were incubated for 3 h RT prior to fluorescence anisotropy (FA) measurements with the Tecan Infinite 500 plate reader (FITC dye: excitation 485 nm, emission 535 nm). Dilution series were prepared in FA buffer (10 mM HEPES pH 7.4, 150 mM NaCl, 0.1% Tween20). All measurements were performed once.

[3] = target: T1, p65_45/14-3-3γ; experiment: Fluorescence anisotropy compound titration, p65_45 peptide with 50 μM 14-3-3γ (CC50)
Protocol: Biochemical assessment of fragments 1-7 used a fluorescence anisotropy (FA) assay. […] The subsequent outputs are herein term termed ‘half maximal complex concentration (CC50)’. […] We sought to develop a structure-activity relationship (SAR) based upon these four chemotypes with the specific goal to develop high affinity molecular glues which orthosterically engage with p65 and stabilize the 14-3-3/p65 complex.
During compound titrations, the 14-3-3γ concentration was constant 50 μM and the compound was titrated in a 1:1 dilution series. In protein titrations, 14-3-3γ was titrated in a 1:1 dilution series in the presence of 1 mM compound. […] All measurements were performed once.

[4] = Table 9, fold-change of apparent KD vs DMSO control
[5] = fold-change of apparent KD in comparison to a DMSO control, 1 mM fragment

Chain of ER (P31947 whole entry, other chains not shown, the tested form may be a part): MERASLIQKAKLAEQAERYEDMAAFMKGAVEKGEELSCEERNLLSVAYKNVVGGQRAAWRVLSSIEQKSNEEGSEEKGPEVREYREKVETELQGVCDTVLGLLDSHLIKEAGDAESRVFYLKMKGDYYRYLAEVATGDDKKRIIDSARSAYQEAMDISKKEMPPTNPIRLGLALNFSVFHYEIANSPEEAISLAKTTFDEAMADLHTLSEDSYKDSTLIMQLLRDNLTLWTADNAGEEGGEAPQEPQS

Kd [1]: 0.145 µM
SMILES: O=C(CCl)CCC1CCN(C(=O)C2(Nc3ccc(Cl)cc3)CCOCC2)CC1

Kd [1]: < 0.1 µM
SMILES: O=C(CCl)NCCCC1CCN(C(=O)C2(Nc3ccc(Cl)cc3)CCOCC2)CC1

SMILES: C=CS(=O)(=O)NCC1CCN(C(=O)C2(Nc3ccc(Cl)cc3)CCOCC2)CC1
Kd [1]: 0.125 µM

Kd [1]: 150 µM
SMILES: O=Cc1ccc(S(=O)(=O)N2CCC(CNC(=O)CCl)CC2)cc1

Kd [1]: 7.15 µM
SMILES: O=C(CCl)NCC1CCN(S(=O)(=O)c2ccc(Cl)cc2)CC1

SF [2, 4]: 36
SMILES: CC1CCc2ccccc2N1S(=O)(=O)c1ccc(C=O)cc1 (racemic) [24b, rac-4-[(2-methyl-1,2,3,4-tetrahydroquinolin-1-yl)sulfonyl]benzaldehyde]
EC50 [3]: 310 µM

SMILES: COC1CCCN(c2cc(C=O)ccc2[N+](=O)[O-])C1 (stereo not drawn) [13e, 3-(3-methoxypiperidin-1-yl)-4-nitrobenzaldehyde]
activity in FA compound titration [3]: did not elicit significant ternary complex formation

SMILES: O=Cc1ccc([N+](=O)[O-])c(N2CCC(O)CC2)c1 [13f, 3-(4-hydroxypiperidin-1-yl)-4-nitrobenzaldehyde]
activity in FA compound titration [3]: did not elicit significant ternary complex formation

SMILES: O=Cc1ccc([N+](=O)[O-])c(N2CCCC(O)C2)c1 (stereo not drawn) [13l, 3-(3-hydroxypiperidin-1-yl)-4-nitrobenzaldehyde]
activity in FA compound titration [3]: did not elicit significant ternary complex formation

SMILES: O=Cc1ccc([N+](=O)[O-])c(N2CCOCC2)c1 [13q, 3-(morpholin-4-yl)-4-nitrobenzaldehyde]
activity in FA compound titration [3]: did not elicit significant ternary complex formation

SMILES: O=Cc1ccc(-n2ccnc2Br)nc1 [16d, 6-(2-bromo-1H-imidazol-1-yl)pyridine-3-carbaldehyde]
activity in FA compound titration [3]: induced an increase in anisotropy

SMILES: O=Cc1ccc(-n2cncc2[C@H]2CCCN2CC2CC2)nc1 [16e, 6-{5-[(2R)-1-(cyclopropylmethyl)pyrrolidin-2-yl]-1H-imidazol-1-yl}pyridine-3-carbaldehyde]
activity in FA compound titration [3]: induced an increase in anisotropy

SF [2, 5]: 1.5
SMILES: Cn1ccc(NS(=O)(=O)c2ccc(C=O)cc2)n1 [23b, 4-formyl-N-(1-methyl-1H-pyrazol-3-yl)benzene-1-sulfonamide]

SF [2, 5]: 1.8
SMILES: CN(C)S(=O)(=O)c1ccc(C=O)cc1 [23c, 4-formyl-N,N-dimethylbenzene-1-sulfonamide]

SF [2, 5]: 5.1
SMILES: COC1CN(S(=O)(=O)c2ccc(C=O)cc2)C1 [23d, 4-[(3-methoxyazetidin-1-yl)sulfonyl]benzaldehyde]

SF [2, 5]: 20.6
SMILES: C[C@H]1CCCN1S(=O)(=O)c1ccc(C=O)cc1 [23e, 4-{[(2S)-2-methylpyrrolidin-1-yl]sulfonyl}benzaldehyde]

SF [2, 5]: 4.0
SMILES: CN1CCCN(S(=O)(=O)c2ccc(C=O)cc2)CC1 [23g, 4-[(4-methyl-1,4-diazepan-1-yl)sulfonyl]benzaldehyde]

SF [2, 5]: 3.3
SMILES: CN1CCN(S(=O)(=O)c2ccc(C=O)cc2)CC1 [23h, 4-[(4-methylpiperazin-1-yl)sulfonyl]benzaldehyde]

SF [2, 5]: 3.3
SMILES: CCN1CCN(S(=O)(=O)c2ccc(C=O)cc2)CC1 [23i, 4-[(4-ethylpiperazin-1-yl)sulfonyl]benzaldehyde]

SF [2, 5]: 5.5
SMILES: CC(C)N1CCN(S(=O)(=O)c2ccc(C=O)cc2)CC1 [23j, 4-{[4-(propan-2-yl)piperazin-1-yl]sulfonyl}benzaldehyde]

SF [2, 5]: 4.5
SMILES: COCCN1CCN(S(=O)(=O)c2ccc(C=O)cc2)CC1 [23l, 4-{[4-(2-methoxyethyl)piperazin-1-yl]sulfonyl}benzaldehyde]

SF [2, 5]: 3.5
SMILES: O=Cc1ccc(S(=O)(=O)N2CCC(N3CCCC3)CC2)cc1 [23m, 4-{[4-(pyrrolidin-1-yl)piperidin-1-yl]sulfonyl}benzaldehyde]

SF [2, 5]: 3.5
SMILES: CN(C)C1CCN(S(=O)(=O)c2ccc(C=O)cc2)CC1 [23n, 4-{[4-(dimethylamino)piperidin-1-yl]sulfonyl}benzaldehyde]

SF [2, 5]: 4.5
SMILES: CC(=O)N1CCN(S(=O)(=O)c2ccc(C=O)cc2)CC1 [23o, 4-[(4-acetylpiperazin-1-yl)sulfonyl]benzaldehyde]

SF [2, 5]: 2.2
SMILES: O=Cc1ccc(S(=O)(=O)N2CCNC(=O)C2)cc1 [23p, 4-[(3-oxopiperazin-1-yl)sulfonyl]benzaldehyde]

SF [2, 5]: 10.3
SMILES: O=Cc1ccc(S(=O)(=O)N2CCCC(O)C2)cc1 (stereo not drawn) [23q, 4-[(3-hydroxypiperidin-1-yl)sulfonyl]benzaldehyde]

SF [2, 5]: 7.5
SMILES: COC1CCCN(S(=O)(=O)c2ccc(C=O)cc2)C1 (stereo not drawn) [23r, 4-[(3-methoxypiperidin-1-yl)sulfonyl]benzaldehyde]

SF [2, 5]: 7.2
SMILES: O=Cc1ccc(S(=O)(=O)N2CCC(O)CC2)cc1 [23s, 4-[(4-hydroxypiperidin-1-yl)sulfonyl]benzaldehyde]

SF [2, 5]: 16.5
SMILES: COC1CCN(S(=O)(=O)c2ccc(C=O)cc2)CC1 [23t, 4-[(4-methoxypiperidin-1-yl)sulfonyl]benzaldehyde]

SF [2, 5]: 6.3
SMILES: O=Cc1ccc(S(=O)(=O)N2CCOCC2)cc1 [23u, 4-(morpholine-4-sulfonyl)benzaldehyde]

SF [2, 5]: 12.7
SMILES: CN(C1CCCCC1)S(=O)(=O)c1ccc(C=O)cc1 [23w, N-cyclohexyl-4-formyl-N-methylbenzene-1-sulfonamide]

SF [2, 5]: 5.9
SMILES: CN(C1CCOCC1)S(=O)(=O)c1ccc(C=O)cc1 [23x, 4-formyl-N-methyl-N-(oxan-4-yl)benzene-1-sulfonamide]

SF [2, 4]: 0.7^a
SF [2, 5]: 0.7
SMILES: O=Cc1ccc(S(=O)(=O)N2CCc3ccccc3C2)cc1 [23y, 4-(1,2,3,4-tetrahydroisoquinoline-2-sulfonyl)benzaldehyde]
EC50 [3]: 180 µM

SF [2, 4]: 30
SMILES: O=Cc1ccc(S(=O)(=O)N2CCc3ccccc32)cc1 [24a, 4-(2,3-dihydro-1H-indole-1-sulfonyl)benzaldehyde]
EC50 [3]: 220 µM

SF [2, 4]: 56
SMILES: O=Cc1ccc(S(=O)(=O)N2CCCc3cc(F)ccc32)cc1 [24c, 4-[(6-fluoro-1,2,3,4-tetrahydroquinolin-1-yl)sulfonyl]benzaldehyde]
EC50 [3]: 140 µM

SF [2, 4]: 36
SMILES: O=Cc1ccc(S(=O)(=O)N2CCCc3cc(Cl)ccc32)cc1 [24d, 4-[(6-chloro-1,2,3,4-tetrahydroquinolin-1-yl)sulfonyl]benzaldehyde]
EC50 [3]: 160 µM

SF [2, 4]: 34
SMILES: COc1ccc2c(c1)CCCN2S(=O)(=O)c1ccc(C=O)cc1 [24e, 4-[(6-methoxy-1,2,3,4-tetrahydroquinolin-1-yl)sulfonyl]benzaldehyde]
EC50 [3]: 120 µM

SF [2, 4]: 23
SMILES: O=Cc1ccc(S(=O)(=O)N2CCOc3ccccc32)cc1 [24f, 4-(3,4-dihydro-2H-1,4-benzoxazine-4-sulfonyl)benzaldehyde]
EC50 [3]: 220 µM

SF [2, 4]: 22
SMILES: O=Cc1ccc(S(=O)(=O)N2CCOc3ccc(F)cc32)cc1 [24g, 4-[(6-fluoro-3,4-dihydro-2H-1,4-benzoxazin-4-yl)sulfonyl]benzaldehyde]
EC50 [3]: 310 µM

SF [2, 4]: 28
SMILES: O=Cc1ccc(S(=O)(=O)N2CCOc3cc(Cl)ccc32)cc1 [24h, 4-[(7-chloro-3,4-dihydro-2H-1,4-benzoxazin-4-yl)sulfonyl]benzaldehyde]
EC50 [3]: 250 µM

SMILES: COc1ccc2c(c1)OCCN2S(=O)(=O)c1ccc(C=O)cc1 [24i, 4-[(7-methoxy-3,4-dihydro-2H-1,4-benzoxazin-4-yl)sulfonyl]benzaldehyde]
EC50 [3]: 110 µM
